Results from patent US5028603A, “Ester-substituted thienotriazolodiazepine compounds and pharmaceutical uses thereof” (Yoshitomi Pharmaceutical Industries, Ltd., priority 1987, dated 1991).
≈ marks a conversion by molar mass, not a printed value. Counter-ions that a name gives are not always drawn. Like-named read-outs stand apart in the source and are kept apart here.

Test system: PAF-induced platelet aggregation
Experiment: Inhibitory effect on PAF-induced platelet aggregation in rabbits (in vitro test)
Assay type: cell-based
Settings: Oryctolagus cuniculus, read-out: Inhibition of PAF-induced platelet aggregation IC50
Protocol: Experiment 1: Inhibitory effect on platelet aggregation in rabbits (in vitro test)
Blood samples to which was added 1/10 volume of 3.8% sodium citrate solution were collected from rabbits. Platelet rich plasma (PRP) was prepared by centrifuging the blood sample at 200×g for 10 minutes, and platelet poor plasma (PPP) was prepared by centrifuging the remaining blood sample at 1000× g for 10 minutes.
Aggregation ability was measured with a turbidimetric device (6-channel NKK Hematracer 1, model PAT-6A) according to the method of G.V.R. Born described in J. Physiology, vol. 168, p. 178 (1963). The aggregometer was adjusted in sensitivity to give light transmission values of 0 and 100% for PRP and PPP, respectively. With stirring at 1000 rpm, 0.3 μl of test compound solution or solvent was added to 0.3 ml of PRP. After the mixture was kept at 37° C. for 2 minutes, to the mixture was added 3 μl synthetic PAF at the final concentration of 1.8×10^-7 M and the light transmission was recorded for 5 minutes.
The inhibition percentage of test compounds on platelet aggregation was calculated from the following formula by measuring the maximal light transmission in the presence and absence of the test compounds. [formula]
IC50 (μg/ml, concentration of 50% inhibition) was graphically determined.

## CCc1cc2c(s1)-n1c(C)nnc1CN=C2c1ccccc1Cl [Etizolam, 6-(o-chlorophenyl)-8-ethyl-1-methyl-4H-s-triazolo [3,4c]thieno[2,3-e][1,4]diazepine, reference compound]
Platelet
  IC50: 1.3 µg/mL (≈ 3.79 µM)

## Cc1nnc2n1-c1sc(C(C)OC(=O)C(C)c3ccc(CC(C)C)cc3)cc1C(c1ccccc1Cl)=NC2 (centres unmarked) [Example 2, 2-(1-(2-(4-iso-butylphenyl)propionyl)oxyethyl)-4-(2-chlorophenyl)-9-methyl-6H-thieno[3,2-f][1,2,4]triazolo[4,3-a][1,4]diazepine]
Platelet
  IC50: 0.01 to 0.03 µg/mL (≈ 0.0183 to 0.0548 µM)

## Cc1ccccc1C1=NCc2nnc(C)n2-c2sc(C(C)OC(=O)C(C)c3ccc(CC(C)C)cc3)cc21 (centres unmarked) [Example 4, 2-(1-(2-(4-isobutylphenyl)propionyl)oxyethyl)-4-(2-methylphenyl)-9-methyl-6H-thieno[3,2-f][1,2,4]triazolo[4,3-a][1,4]diazepine]
Rabbit platelet rich plasma, 37° C., PAF final concentration 1.8×10^-7 M
  IC50: 0.03 to 0.1 µg/mL (≈ 0.057 to 0.19 µM)

## Cc1nnc2n1-c1sc(C(C)OC(=O)c3ccccc3)cc1C(c1ccccc1Cl)=NC2 (centres unmarked) [Example 13, 2-(1-benzoyloxyethyl)-4-(2-chlorophenyl)-9-methyl-6H-thieno[3,2-f][1,2,4]triazolo[4,3-a][1,4]diazepine.hydrochloride]
Platelet
  IC50: 0.1 to 0.3 µg/mL

## Cc1nnc2n1-c1sc(C(C)OC(=O)C(C)(C)C)cc1C(c1ccccc1Cl)=NC2 (centres unmarked) [Example 14, 4-(2-chlorophenyl)-9-methyl-2(1-pivaloyloxyethyl)-6H-thieno[3,2-f][1,2,4]triazolo[4,3-a][1,4]diazepine]
Platelet
  IC50: 0.2 µg/mL (≈ 0.451 µM)
